# Test results published in PMC5979965, “Structure-based discovery of mPGES-1 inhibitors suitable for preclinical testing in wild-type mice as a new generation of anti-inflammatory drugs” (Scientific Reports, 2018).
# Like-named read-outs stand apart in the source and are kept apart here.
# Legend:
# human mPGES-1 = molecular target: T1, human mPGES-1 (Homo sapiens, UniProt O14684); experiment: Activity assay using recombinant human mPGES-1 (PGE2 enzyme immunoassay); format: biochemical
# T1 construct: made in house; host or cells: FreeStyle 293-F cells, mPGES-1/pcDNA3 construct, crude microsomal preparation
# T1 sequence (O14684 1-152): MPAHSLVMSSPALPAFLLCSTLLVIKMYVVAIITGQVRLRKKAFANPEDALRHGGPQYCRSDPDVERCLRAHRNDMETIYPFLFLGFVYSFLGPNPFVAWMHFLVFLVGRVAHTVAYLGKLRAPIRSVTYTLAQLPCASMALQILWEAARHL
# Experimental: (§1) Our protocols for the protein preparation and in vitro activity assays were the same as described in previous reports[39],[41]–[43]. […] For the structure-activity relationship (SAR), we first investigated the impact of substitution on the central benzene ring on the inhibitory potency. […] The length of the alkoxy side chain was also inspected in compounds 4b and 6.
# Purity was determined by HPLC (Waters 1525 Binary HPLC pump, Waters 2487 Dual λ Absorbance Detector, and Waters 717plus Autosampler, Milford, MA) at λ of […] using acetonitrile and 0.1% […]
# TFA (70:30) as mobile phase.
# (§2) 3. In vitro experimental tests
# (§3) Preparation of mPGES-1 enzymes. Cloning of mPGES-1 and the protein preparation were described in our previous reports.15 Briefly, FreeStyle Max Expression system was used to express wild -type human and mouse mPGES-1 enzymes separately. FreeStyle 293-F cells were cultured following manufacturer’s manual in FreeStyle 293 expression medium on orbit rotate shaker in 8% CO 2 incubator at 37 °C. Cells were transfected with 1.5 µg/mL of mPGES-1/pcDNA3 construct using FreeStyle Max reagent at a cell density of 1 × 106 for 2 days. Transfected cells were collected, washed, and sonicated in TSES buffer (15 mM Tris-HCl, pH 8.0 plus 0.25 M sucrose, 0.1 mM EDTA and 1 mM DTT) on ice. The broken cells were first centrifuged at 12,500 × g for 10 min. The supernatant was further centrifuged at 105,000 × g for 1 hr at 4 °C. The pellet was washed and homogenized in PBS buffer. The crude microsomal mPGES -1 preparations were aliquoted and stored at -80 °C before use.
# (§4) PGH2 (stored in dry ice). […] After 1
# (§5) Following the formation of […]
# mouse mPGES-1 [1] = molecular target: T2, mouse mPGES-1 (Mus musculus, UniProt Q9JM51); experiment: Activity assay using recombinant mouse mPGES-1 (PGE2 enzyme immunoassay); format: biochemical
# T2 construct: made in house; host or cells: FreeStyle 293-F cells, mPGES-1/pcDNA3 construct, crude microsomal preparation
# T2 sequence (Q9JM51 1-153): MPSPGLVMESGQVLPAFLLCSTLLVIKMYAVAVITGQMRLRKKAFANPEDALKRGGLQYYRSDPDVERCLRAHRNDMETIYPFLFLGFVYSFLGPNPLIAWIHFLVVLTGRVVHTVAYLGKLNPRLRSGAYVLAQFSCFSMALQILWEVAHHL
# Text: as §1, with “The central benzene rings of 4i was originated from salicylaldehydes with chlorine substituted on 5-position. […] The” for “The”
# as §2, §3, §4, §5
# mice [2] = experiment: Acute toxicity/safety testing in mice after PO administration
# Experimental: (§6) Animals. Wild-type CD-1 mice (28-35 g) were ordered from Harlan (Indianapolis, IN), and housed
# (§7) for a week prior to the experimental studies. All animals were allowed ad libitum access to food and water
# (§8) and maintained on a 12 h light/12 h dark cycle, with the lights on at 8:00 am at a room temperature of 21–
# (§9) 22 °C. Experiments were performed in a same colony room in accordance with the Guide for the Care and
# (§10) Use of Laboratory Animals as adopted and promulgated by the National Institutes of Health. The animal
# (§11) protocol was approved by the IACUC (Institutional Animal Care and Use Committee) at the University
# (§12) Preparation of pictures during acute toxicity testing. Mice were divided into three groups and
# (§13) treated with oral administration of a single dose of vehicle (Wesson vegetable oil, Memphis, TN), 4b (250
# (§14) mg/mL in Wesson vegetable oil at the dose of 1 g/kg), and celecoxib (12.5 mg/mL in Wesson vegetable
# PGE2 levels in kidney = experiment: Wild-type mice based air-pouch model of inflammation (carrageenan), PGE2 by ELISA; settings: for PGE2 levels in mice (kidney): 24 hours, vs vehicle
# mouse mPGES-1 [3] = molecular target: T2, mouse mPGES-1; settings: cited from earlier work
# rat enzyme (mPGES-1) = settings: cited from earlier work
# mice [4] = settings: mouse, in vivo, po, 50 mg/kg
# Experimental: as §6, §7, §8, §9, §10, §11, §12, §13, §14
# [5] = IC50 (nM) against mPGES-1, Mouse mPGES-1, Mean ± SD of measurements in triplicate
smiles,measurement,setting,value
O=C1NC(=O)C(=Cc2ccc(OCCCCC3CCCCC3)c(Cl)c2)C(=O)N1 [Compound 4b],IC50,human mPGES-1,0.033 ± 0.003 µM
same,IC50,mouse mPGES-1 [1]; [5],157 ± 31 nM
same,bleeding spots on the inner side of stomach samples,"mice [2]; 24 hr after PO, 1 g/kg in oil",did not find any bleeding spot
same,toxic signs in mice,"mice [2]; PO, high dose up to 1 g/kg, observation for 14 days",did not cause any toxic sign
same,PGE2 levels in mice (kidney),"PGE2 levels in kidney; PO, 5 mg/kg single dose",significantly decreased
same,PGE2 levels in mice (kidney),"PGE2 levels in kidney; PO, 10 mg/kg single dose",significantly decreased
same,PGE2 levels in mice (kidney),"PGE2 levels in kidney; SC, 0.1 mg/kg single dose",significantly decreased
same,PGE2 levels in mice (kidney),"PGE2 levels in kidney; SC, 1 mg/kg single dose",significantly decreased
same,PGE2 levels in mice (kidney),"PGE2 levels in kidney; SC, 10 mg/kg single dose",significantly decreased
same,oral bioavailability,PGE2 levels in kidney; inferred from PO activity in mice,orally bioavailable
O=C1NC(=O)C(=Cc2cc(Cl)ccc2OCCCCC2CCCCC2)C(=O)N1 [Compound 4i],IC50,human mPGES-1,0.087 ± 0.027 µM
same,IC50,mouse mPGES-1 [1]; [5],19100 ± 3490 nM
same,IC50,mouse mPGES-1 [1]; IC50 against the mouse enzyme,> 10000 nM
O=C1NC(=O)C(=Cc2ccc(OCCCC3CCCCC3)c(Cl)c2)C(=O)N1 [Compound 6],IC50,human mPGES-1,0.069 ± 0.016 µM
same,IC50,mouse mPGES-1 [1]; [5],292 ± 47 nM
"N#Cc1cccc(C#N)c1-c1nc2c3ccc(Cl)cc3c3ccccc3c2[nH]1 [MF63, 2-(6-chloro-1H-phenanthro[9,10-d]imidazol-2-yl)-isophthalonitrile]",inhibition against mouse mPGES-1 at 10 µM,mouse mPGES-1 [1]; 10 µM,no significant inhibition
same,"activity against the mouse enzyme, previously reported",mouse mPGES-1 [3],without significant activity
same,"activity against the rat enzyme, previously reported",rat enzyme (mPGES-1),without significant activity
"CC(C)c1ccc2c(c1)c(SC(C)(C)C)c(CC(C)(C)C(=O)O)n2Cc1ccc(Cl)cc1 [MK-886, reference compound]",inhibition of mouse mPGES-1,mouse mPGES-1 [1]; concentration not given,without significant inhibition
Cc1ccc(-c2cc(C(F)(F)F)nn2-c2ccc(S(N)(=O)=O)cc2)cc1 [celecoxib],bleeding spots on the inner side of stomach samples,mice [4],at least one bleeding spot
same,finding at gastric mucosa,mice [4],bleeding ulcer was observed
same,toxicity in mice,mice [4],very toxic for stomach and other issues of mice
